The supplement of paper PMC10307832

Experiments:
Test in all cases: relative viability (nuclei count vs DMSO), 5 days (fraction); higher = more cells survive
HARA = test system: HARA
Procedure, shortened: (§1)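 Relative viability divides the nuclei count in treated wells by that in vehicle wells. Lung cancer cell lines were seeded in 1536-well plates, dosed by pin tool the next day, and fixed and stained after 5 days in one step with final 0.05% Triton X-100, 1% formaldehyde and 1 ug/ml Hoechst. Dosing was a single drug or a fixed anchor-drug dose plus five library-drug doses (not always all listed) in √10 steps, and values are medians of duplicate plates imaged at 4×.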

HCC-15 = test system: HCC-15
Procedure, shortened: as §1

HCC-366 = test system: HCC-366
Procedure, shortened: as §1

LU99A = test system: LU99A
Procedure, shortened: as §1

LXF-289 = test system: LXF-289
Procedure, shortened: as §1

NCI-H1666 = test system: NCI-H1666
Procedure, shortened: as §1

NCI-H1703 = test system: NCI-H1703
Procedure, shortened: as §1

NCI-H1734 = test system: NCI-H1734
Procedure, shortened: as §1

NCI-H1792 = test system: NCI-H1792
Procedure, shortened: as §1

NCI-H1793 = test system: NCI-H1793
Procedure, shortened: as §1

NCI-H1944 = test system: NCI-H1944
Procedure, shortened: as §1

NCI-H1975 = test system: NCI-H1975
Procedure, shortened: as §1

NCI-H2347 = test system: NCI-H2347
Procedure, shortened: as §1

NCI-H2405 = test system: NCI-H2405
Procedure, shortened: as §1

NCI-H3122 = test system: NCI-H3122
Procedure, shortened: as §1

NCI-H358 = test system: NCI-H358
Procedure, shortened: as §1

NCI-H460 = test system: NCI-H460
Procedure, shortened: as §1

NCI-H650 = test system: NCI-H650
Procedure, shortened: as §1

NCI-H838 = test system: NCI-H838
Procedure, shortened: as §1

PC-3 [JPC-3] = test system: PC-3 [JPC-3]
Procedure, shortened: as §1

Work on `Nc1cccc2c1CN(C1CCC(=O)NC1=O)C2=O` (configuration not stated) [Lenalidomide] + NC(=O)Nc1cc(-c2cccc(F)c2)sc1C(=O)N[C@H]1CCCNC1 [AZD7762] (partner 0.2 µM) yielded a relative viability (HARA; first compound 0.253 µM) of 0.173, a relative viability (HARA; first compound 2.53 µM) of 0.296 and a relative viability (HARA; first compound 8 µM) of 0.434. For the same molecule, the relative viability (HCC-15; first compound 0.253 µM) was 1.11, the relative viability (HCC-15; first compound 0.8 µM) was 1.22 and the relative viability (HCC-15; first compound 2.53 µM) was 1.35. The relative viability (HCC-15; first compound 8 µM) was 1.36, the relative viability (HCC-366; first compound 0.253 µM) was 0.258 and the relative viability (HCC-366; first compound 0.8 µM) was 0.268. For the same molecule, the relative viability (HCC-366; first compound 2.53 µM) was 0.371, the relative viability (HCC-366; first compound 8 µM) was 0.335 and the relative viability (LU99A; first compound 0.253 µM) was 0.311. It also gave a relative viability (LU99A; first compound 0.8 µM) of 0.341, a relative viability (LU99A; first compound 2.53 µM) of 0.397 and a relative viability (LU99A; first compound 8 µM) of 0.257. It also gave a relative viability (LXF-289; first compound 0.253 µM) of 1.09, a relative viability (LXF-289; first compound 0.8 µM) of 1.1 and a relative viability (LXF-289; first compound 2.53 µM) of 1.23. For the same molecule, the relative viability (LXF-289; first compound 8 µM) was 1.26, the relative viability (NCI-H1666; first compound 0.253 µM) was 0.895 and the relative viability (NCI-H1666; first compound 0.8 µM) was 0.716. It also gave a relative viability (NCI-H1666; first compound 2.53 µM) of 0.985, a relative viability (NCI-H1666; first compound 8 µM) of 0.874 and a relative viability (NCI-H1703; first compound 0.253 µM) of 0.123. The relative viability (NCI-H1703; first compound 0.8 µM) was 0.117, the relative viability (NCI-H1703; first compound 2.53 µM) was 0.131 and the relative viability (NCI-H1703; first compound 8 µM) was 0.135. For the same molecule, the relative viability (NCI-H1734; first compound 0.253 µM) was 0.586, the relative viability (NCI-H1734; first compound 0.8 µM) was 0.597 and the relative viability (NCI-H1734; first compound 2.53 µM) was 0.618. It also gave a relative viability (NCI-H1734; first compound 8 µM) of 0.494, a relative viability (NCI-H1792; first compound 0.253 µM) of 0.894 and a relative viability (NCI-H1792; first compound 0.8 µM) of 0.571. The relative viability (NCI-H1792; first compound 2.53 µM) was 0.971, the relative viability (NCI-H1792; first compound 8 µM) was 0.479 and the relative viability (NCI-H1793; first compound 0.253 µM) was 0.476. It also gave a relative viability (NCI-H1793; first compound 2.53 µM) of 0.821, a relative viability (NCI-H1793; first compound 8 µM) of 0.389 and a relative viability (NCI-H1944; first compound 0.253 µM) of 0.545. For the same molecule, the relative viability (NCI-H1944; first compound 2.53 µM) was 0.709, the relative viability (NCI-H1944; first compound 8 µM) was 0.386 and the relative viability (NCI-H1975; first compound 0.253 µM) was 0.8. It also gave a relative viability (NCI-H1975; first compound 0.8 µM) of 0.642, a relative viability (NCI-H1975; first compound 2.53 µM) of 0.776 and a relative viability (NCI-H1975; first compound 8 µM) of 0.713. It also gave a relative viability (NCI-H2347; first compound 0.253 µM) of 0.787, a relative viability (NCI-H2347; first compound 0.8 µM) of 0.689 and a relative viability (NCI-H2347; first compound 2.53 µM) of 0.811. The relative viability (NCI-H2347; first compound 8 µM) was 0.703, the relative viability (NCI-H2405; first compound 0.253 µM) was 0.681 and the relative viability (NCI-H2405; first compound 0.8 µM) was 0.498. The relative viability (NCI-H2405; first compound 2.53 µM) was 0.815, the relative viability (NCI-H2405; first compound 8 µM) was 0.821 and the relative viability (NCI-H3122; first compound 0.253 µM) was 0.938. The relative viability (NCI-H3122; first compound 0.8 µM) was 1.03, the relative viability (NCI-H3122; first compound 2.53 µM) was 1.06 and the relative viability (NCI-H3122; first compound 8 µM) was 0.966. It also gave a relative viability (NCI-H358; first compound 0.253 µM) of 0.521, a relative viability (NCI-H358; first compound 0.8 µM) of 0.713 and a relative viability (NCI-H358; first compound 2.53 µM) of 0.494. The relative viability (NCI-H358; first compound 8 µM) was 0.621, the relative viability (NCI-H460; first compound 0.253 µM) was 0.578 and the relative viability (NCI-H460; first compound 0.8 µM) was 0.567. The relative viability (NCI-H460; first compound 2.53 µM) was 0.596, the relative viability (NCI-H460; first compound 8 µM) was 0.754 and the relative viability (NCI-H650; first compound 0.253 µM) was 1.06. It also gave a relative viability (NCI-H650; first compound 0.8 µM) of 0.927, a relative viability (NCI-H650; first compound 2.53 µM) of 1.06 and a relative viability (NCI-H650; first compound 8 µM) of 0.89. The relative viability (NCI-H838; first compound 0.253 µM) was 0.938, the relative viability (NCI-H838; first compound 0.8 µM) was 0.871 and the relative viability (NCI-H838; first compound 2.53 µM) was 0.962. For the same molecule, the relative viability (NCI-H838; first compound 8 µM) was 1.03, the relative viability (PC-3 [JPC-3]; first compound 0.253 µM) was 0.888 and the relative viability (PC-3 [JPC-3]; first compound 0.8 µM) was 0.467. It also gave a relative viability (PC-3 [JPC-3]; first compound 2.53 µM) of 0.944 and a relative viability (PC-3 [JPC-3]; first compound 8 µM) of 0.667.
